Data taken from patent US20230414723A1, “ENHANCED HYT-INDUCED PROTEIN DEGRADATION USING LIPID NANOPARTICLE DELIVERY” (Trustees of Tufts College, priority 2020, published 2023).

Tests used:
BRD4 = biological target: T1, BRD4 (Homo sapiens, UniProt O60885); test: BRD4 degradation in HeLa cells by Western blot; format: cell-based
T1 construct: HeLa cells, which express BRD4 at high levels, were selected as a model cell line; host or cells: HeLa
Protocol: 80-O14B LNP was formulated by directly dissolving the lipidoid into 25 mM sodium acetate solution (pH=5.5). 80-O14B LNP was added into the solution with the final concentration of 5 μg/mL and the solution was incubated at room temperature for another 15 min before administration. Pre-fused ARV-825 or SARD279 were prepared through the similar route.
Generally, Western blots was carried out on the Invitrogen Novex SureLock Mini-Cell system. Supplies for the system were bought from Invitrogen (Carlsbad, CA, USA) […] sample was loaded onto 4-12% bis-tris protein gel and the gel was run with a stable voltage of 120 V for 80 min. Then the gel was cut according to the protein ladder and transferred to PVDF membrane with a stable current of 250 mA for 3 h. The membrane was blocked by 5% skimmed milk for 1 h at room temperature and then incubated with primary antibody overnight. After 3 cycles of washing by TBST (tris-buffered saline, 0.1% tween 20), the membrane was incubated with secondary antibody for another 1 h and then washed by TBST for 3 times. The final membrane was then imaged using enhanced chemiluminescence (ECL) substrate.
1×10^6 HeLa cells were cultured in 6 well plate for 24 h before administration. […] After 24 h incubation, the proteins were isolated from HeLa cells using the radio-immunoprecipitation assay (RIPA) lysis buffer and quantitated by bicinchoninic acid assay (BCA assay). Then the proteins were diluted to the sample concentration using NuPAGE LDS sample buffer (Invitrogen, Carlsbad, CA, USA) and denatured at 95° C. for 5 min. The study of targeted protein degradation by ARV-825 and SARD279 were carried out using similar protocols.

androgen receptor (AR) = biological target: T2, androgen receptor (AR) (Homo sapiens, UniProt P10275, T878A); test: AR degradation in LNCaP cells by Western blot; format: cell-based; settings: 0.125 to 0.5 μM
T2 construct: The study of targeted protein degradation by ARV-825 and SARD279 were carried out using similar protocols; host or cells: LNCaP
T2 sequence (P10275 1-920 T878A): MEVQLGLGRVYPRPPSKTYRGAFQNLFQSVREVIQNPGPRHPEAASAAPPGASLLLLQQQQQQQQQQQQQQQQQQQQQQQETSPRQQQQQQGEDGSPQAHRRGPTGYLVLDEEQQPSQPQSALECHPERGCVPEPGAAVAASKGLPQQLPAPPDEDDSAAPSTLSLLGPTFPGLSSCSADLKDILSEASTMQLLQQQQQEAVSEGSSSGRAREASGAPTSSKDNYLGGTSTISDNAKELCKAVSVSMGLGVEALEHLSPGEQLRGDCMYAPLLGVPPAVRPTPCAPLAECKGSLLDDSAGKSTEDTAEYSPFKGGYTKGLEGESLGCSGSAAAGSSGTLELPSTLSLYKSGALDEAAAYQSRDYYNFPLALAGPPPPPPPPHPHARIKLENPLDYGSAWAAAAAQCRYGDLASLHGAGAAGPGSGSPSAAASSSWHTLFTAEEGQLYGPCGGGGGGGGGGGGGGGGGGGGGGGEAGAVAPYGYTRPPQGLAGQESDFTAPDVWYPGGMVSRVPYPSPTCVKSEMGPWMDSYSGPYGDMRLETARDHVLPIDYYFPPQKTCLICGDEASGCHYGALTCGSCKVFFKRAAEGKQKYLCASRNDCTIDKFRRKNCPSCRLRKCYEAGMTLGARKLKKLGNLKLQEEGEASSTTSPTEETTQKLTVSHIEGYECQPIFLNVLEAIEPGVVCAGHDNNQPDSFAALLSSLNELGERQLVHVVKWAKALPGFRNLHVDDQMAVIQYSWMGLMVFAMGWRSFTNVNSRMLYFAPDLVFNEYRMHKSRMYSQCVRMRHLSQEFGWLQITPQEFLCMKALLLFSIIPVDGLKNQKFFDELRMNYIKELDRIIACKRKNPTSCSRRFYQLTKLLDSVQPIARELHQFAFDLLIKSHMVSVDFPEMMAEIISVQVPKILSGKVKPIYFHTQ

Row | BRD4 levels remained (BRD4; 24 h, 25 and 50 nM) | BRD4 degradation, time-dependent (BRD4; after 8 h) | BRD4 degradation, time-dependent (BRD4; after 24 h) | BRD4 degradation, time-dependent (BRD4; first 6 h) | SMILES | AR degradation (androgen receptor (AR))
1 | more than 80% | Small amounts of degradation | total degradation | no significant degradation | Cc1ncsc1-c1ccc([C@H](C)NC(=O)[C@@H]2C[C@@H](O)CN2C(=O)[C@@H](NC(=O)COCCCOCCNC(=O)C[C@@H]2N=C(c3ccc(Cl)cc3)c3c(sc(C)c3C)-n3c(C)nnc32)C(C)(C)C)cc1 [ARV-771] | 
2 |  |  |  |  | CC1(C)C(=O)N(c2ccc(C#N)c(C(F)(F)F)c2)C(=S)N1CCCC(=O)NCCOCCOC(=O)CC12CC3CC(CC(C3)C1)C2 [SARD279] | no AR degradation
